The values below come from ChEMBL document CHEMBL5154661, “Novel 2-phenyl-3-(Pyridin-2-yl) thiazolidin-4-one derivatives as potent inhibitors for proliferation of osteosarcoma cells in vitro and in vivo” (Eur J Med Chem, 2022).

The test system of data set [1] is MG-63. The data set can be described thus: Antiproliferative activity against human MG-63 cells assessed as cell growth inhibition at 1 uM measured after 72 hrs by CCK-8 assay relative to control. It counts as functional.
The test system of data set [2] is HOS. The data set is described as follows: Antiproliferative activity against human HOS cells assessed as cell growth inhibition at 1 uM measured after 72 hrs by CCK-8 assay relative to control. It counts as functional. In general terms: Tetrazolium assays rely on reduction of a dye to a coloured formazan, in cell work by metabolically active cells.
The test system of data set [3] is SJSA-1. The data set is described as follows: Antiproliferative activity against human SJSA-1 assessed as cell growth inhibition at 1 uM measured after 72 hrs by CCK-8 assay relative to control. It is filed as functional.
For data set [4], the system named is U2OS. The data set is described as follows: Antiproliferative activity against human U2OS cells assessed as cell growth inhibition at 1 uM measured after 72 hrs by CCK-8 assay relative to control. It counts as functional.
Data set [5] relates to HOS-TE85. The data set is described as follows: Antiproliferative activity against human MNNG/HOS cells assessed as cell growth inhibition at 1 uM measured after 72 hrs by CCK-8 assay relative to control. It counts as functional.
For data set [6], the system named is 143B. The data set can be described thus: Antiproliferative activity against human 143B cells assessed as cell growth inhibition at 1 uM measured after 72 hrs by CCK-8 assay relative to control. It counts as functional.
The test system of data set [7] is HOS-TE85. The data set can be described thus: Antiproliferative activity against human MNNG/HOS cells assessed as cell growth inhibition measured after 72 hrs by CCK-8 assay. The following applies: HOS-TE85, 72 h. It counts as functional, cell-based.
Data set [8] in a line: Microsomal stability in rat liver microsomes assessed as intrinsic clearance at 0.1 uM incubated for 10 mins in presence of NADPH by LC-MS/MS analysis. It is filed as ADME, Microsome.
A short description of data set [9]: Microsomal stability in human liver microsomes assessed as intrinsic clearance at 0.1 uM incubated for 10 mins in presence of NADPH by LC-MS/MS analysis. It counts as ADME, Microsome.
A short description of data set [10]: Microsomal stability in mouse liver microsomes assessed as intrinsic clearance at 0.1 uM incubated for 10 mins in presence of NADPH by LC-MS/MS analysis. It counts as ADME, Microsome. For orientation: Liver microsomes are a subcellular fraction often used to study metabolism.
Data set [11] is described as follows: Kinetic solubility of compound at pH 6.8 by turbidimetry method. It counts as physicochemical. The following applies: buffer, read-out: Kinetic_solubility.
Data set [12] is described as follows: Kinetic solubility of compound at pH 7.4 by turbidimetry method. It counts as physicochemical. The following applies: buffer, read-out: Kinetic_solubility.

≈ marks a conversion by molar mass, not a printed value.

A word on the inhibition: it is the drop in the measured response relative to a control, in per cent. For orientation: IC50 means the point on the concentration scale where inhibition reaches its midpoint. `CCN1C(=O)CSC1c1cccc(C(=O)NCCCCc2ccccc2)c1` (stereo unspecified): the inhibition at 1 µM in [1] amounted to 0%; in [2], 6%; in data set [3], 3%; in data set [4], 13%; in data set [5], 0%; in data set [6], 40%. In data set [7], the IC50 is greater than 1000 nM.

With `COc1ccccc1N1C(=O)C(C)SC1c1cccc(C(=O)NCCCCc2ccccc2)c1` (stereo unspecified), the “intrinsic clearance (CLint)” value in data set [8] was found to be 2908 mL/min/g; in data set [9], 2657 mL/min/g; in [10], 2948 mL/min/g. For the same molecule, the inhibition at 1 µM was 94% in data set [1]; 82% in [2]; 84% in data set [3]; 38% in [4]; 95% in data set [5]; 61% in [6]. Besides, the solubility kinetic amounted to 20 µM (≈ 9.49 µg/mL) in data set [11] and 10 µM (≈ 4.75 µg/mL) in data set [12]. Further, the IC50 in data set [7] amounted to 45.1 nM.

Take `CC(F)(F)c1cccc(N2C(=O)CSC2c2cccc(C(=O)NCCCCc3ccccc3)c2)c1` (stereo unspecified): the results for the “intrinsic clearance (CLint)” value in data set [8], in [9] and in data set [10] were 2323 mL/min/g, 1750 mL/min/g and 2014 mL/min/g, respectively. For the same molecule, the inhibition at 1 µM in data set [1] is 92%; in [2], 23%; in data set [3], 68%; in [4] it was 24%; in data set [5], 93%; in [6], 1%. Further, the solubility kinetic in data set [11] amounted to 10 µM (≈ 4.95 µg/mL); in [12] it was 2 µM (≈ 0.989 µg/mL). Also, in data set [7], the IC50 stood at 29.1 nM.

Regarding `COc1cc(F)ccc1N1C(=O)CSC1c1cccc(C(=O)NCCCCc2ccccc2)c1` (stereo unspecified), the inhibition at 1 µM in data set [1] came to 92%; in data set [2] it was 81%; in data set [3] it was 77%; in data set [4], 34%; in [5] it was 94%; in [6] it was 63%. In data set [7], the IC50 was 71.1 nM.

As to `COc1ccccc1N1C(=O)CSC1C(=O)NCCCCc1ccccc1` (stereo unspecified), the inhibition at 1 µM in data set [1] was 60%; in data set [2] it was 0%; in data set [3], 14%; in data set [4], 6%; in data set [5], 0%; in data set [6], 4%. In addition, in data set [7], the IC50 is greater than 1000 nM.

Consider `O=C(NCCCCc1ccccc1)c1cccc(C2SCC(=O)N2c2ccccc2F)c1` (stereo unspecified), for which the “intrinsic clearance (CLint)” value in data set [8] was found to be 2946 mL/min/g; in data set [9], 1712 mL/min/g; in data set [10], 2014 mL/min/g. Besides, the inhibition at 1 µM turned out to be 92% in data set [1]; 83% in [2]; 80% in data set [3]; 38% in [4]; 95% in [5]; 59% in data set [6]. Besides, the values for the solubility kinetic in data set [11] and in data set [12] were 20 µM (≈ 8.97 µg/mL) and 10 µM (≈ 4.49 µg/mL), respectively. Also, the IC50 in data set [7] was determined as 34.1 nM.

On to `CCOc1ccccc1N1C(=O)C(C)SC1c1cccc(C(=O)NCCCCc2ccccc2)c1` (stereo unspecified), for which the inhibition at 1 µM came to 92% in data set [1]; 82% in data set [2]; 85% in data set [3]; 37% in [4]; 94% in [5]; 53% in data set [6]. In addition, in data set [7], the IC50 came to 71.6 nM.

Take `COc1ccc(OC)c(N2C(=O)CSC2c2cccc(C(=O)NCCCCc3ccccc3)c2)c1` (stereo unspecified): the inhibition at 1 µM came out at 92% in data set [1]; 5% in data set [2]; 48% in data set [3]; 1% in [4]; 20% in [5]; 2% in [6]. Moreover, the IC50 in [7] was greater than 1000 nM.

Turning to `O=C(NCCCCc1ccccc1)c1cccc(C2SCC(=O)N2c2ccccc2)c1` (stereo unspecified), the inhibition at 1 µM in [1] stood at 89%; in data set [2], 55%; in data set [3], 73%; in data set [4], 68%; in data set [5] it was 96%; in data set [6], 60%. Besides, in [7], the IC50 amounted to 15.9 nM.

Regarding `COc1ccccc1N1C(=O)CSC1c1cc(F)cc(C(=O)O)c1` (stereo unspecified), the inhibition at 1 µM in [1] came to 0%; in data set [2], 8%; in data set [3] it was 0%; in data set [4], 15%; in [5] it was 0%; in [6] it was 0%. In addition, in data set [7], the IC50 was greater than 1000 nM.

Turning to `COc1ccc(N2C(=O)CSC2c2cccc(C(=O)NCCCCc3ccccc3)c2)c(OC)c1` (stereo unspecified), the inhibition at 1 µM was determined as 56% in [1]; 82% in data set [2]; 85% in data set [3]; 37% in data set [4]; 58% in data set [5]; 53% in data set [6]. Also, in [7], the IC50 turned out to be 90.4 nM.

As for `C#Cc1cc(C(=O)NCCCCc2ccccc2)cc(C2SCC(=O)N2c2ccccc2OC)c1` (stereo unspecified), the “intrinsic clearance (CLint)” value in data set [8] turned out to be 2204 mL/min/g; in data set [9], 1727 mL/min/g; in data set [10], 2490 mL/min/g. Further, the solubility kinetic in data set [11] and in data set [12] was 10 µM (≈ 4.85 µg/mL) each time. In addition, in data set [7], the IC50 was determined as 40.8 nM.

With `COc1ccc(C)cc1N1C(=O)CSC1c1cccc(C(=O)NCCCCc2ccccc2)c1` (stereo unspecified), the inhibition at 1 µM was determined as 92% in [1]; 42% in data set [2]; 79% in data set [3]; 30% in [4]; 95% in data set [5]; 29% in data set [6]. The IC50 in data set [7] was found to be 300 nM.

Consider `COc1cccc(OC)c1N1C(=O)CSC1c1cccc(C(=O)NCCCCc2ccccc2)c1` (stereo unspecified), for which the inhibition at 1 µM in [1] worked out at 80%; in data set [2], 80%; in [3] it was 72%; in data set [4], 41%; in data set [5], 95%; in data set [6], 31%. Moreover, the IC50 in [7] is greater than 1000 nM.

As to `O=C(NCCCCc1ccccc1)c1cccc(C2OCC(=O)N2c2cccc(F)c2)c1` (stereo unspecified), the inhibition at 1 µM in data set [1] was determined as 66%; in [2], 29%; in data set [3] it was 32%; in [4] it was 25%; in [5], 87%; in [6], 0%. Also, the half-maximal inhibitory concentration (IC50) in data set [7] is 320 nM.

For the molecule `COc1c(F)cccc1N1C(=O)CSC1c1cccc(C(=O)NCCCCc2ccccc2)c1` (stereo unspecified), the inhibition at 1 µM stood at 0% in [1]; 9% in data set [2]; 1% in [3]; 12% in [4]; 12% in data set [5]; 5% in data set [6]. Further, in data set [7], the IC50 came out at 26.2 nM.
